Test results: US11612609B2, “Uses of oxygenated cholesterol sulfates (OCS)” (Virginia Commonwealth University, priority 2013, dated 2023)
Entries after “also recorded” stand apart in the source; their conditions may differ.

Experiments:
[1] = test system: acute liver failure induced by acetaminophen; assay: Acetaminophen (ATMP) 500 mg/kg acute liver failure in mice, serum markers (Example 1A); format: in vivo
Experimental: (§1) Female mice were peritoneally-injected with acetaminophen (500 mg/kg, in 10% ethanol in PBS) either 0.5 or 2 hrs before being treated by administration of 25HC3S (20 or 25 mg/kg, 10% propylene glycol in PBS). Sera were collected 24 or 48 hrs following acetaminophen administration and enzymatic activities and other serum parameters were measured.

[2] = Level of 25HC3S in blood and tissues after administration (Example 1A, FIG. 3); format: in vivo, mice
Experimental: FIGS. 3A and B. Concentration of 25HC3S in A, blood and B, the indicated tissues of rats subjected to high levels of ATMP.
as §1
FIGS. 3A and 3B show the level of 25HC3S in blood (3A) and the indicated tissues (3B) at the indicated times after administration.

[3] = test system: high dose of acetaminophen (ATMP); assay: ATMP 600 mg/kg in mice, 10-day mortality and liver function markers (Example 1B); format: in vivo
Experimental: In another set of experiments, female mice were peritoneally-injected with acetaminophen (600 mg/kg, in 20% EtOH in PBS) and were then further treated by peritoneal injection of 25HC3S (25 mg/kg in 10% PG in PBS) 2 and 24 hrs later. Control mice received ATMP without 25HC3S. Mortality was monitored for 10 days.

[4] = test system: acute liver failure, as induced by PO administration of acetaminophen; assay: ATMP 300 mg/kg PO in mice, serum chemistry and body weight (Example 2); format: in vivo; details: 25HC3S 25 mg/kg IP or PO, 1 hour and 24 hours after ATMP 300 mg/kg PO; vs route-matched vehicle
Experimental: Mice were challenged with acetaminophen (300 mg/kg PO) and then treated with vehicle or 25HC3S (25 mg/kg) by IP injection or PO gavage, one (1) hour and 24 hours after acetaminophen challenge. Measurements and samples included whole blood for serum and clinical chemistry analysis (ALT, AST, ALK, LDH, BUN and glucose) and livers and kidneys for formalin fixation and histology.

[5] = test system: renal ischemia/reperfusion; assay: Kidney ischemia-reperfusion in rats (Example 3); format: in vivo, Lewis rats
Experimental: 25HC3S was dissolved in propylene glycol, at 20 mg/mL, and stored at room temperature as the stock solution. Before use, 3 parts of PBS was mixed with 1 part of DV928 stock solution. The final concentration for injection was 5 mg/ml. Preparation of the Formulation for oral gavage: […]
25HC3S was suspended in 0.5% carboxymethylcellulose (CMC) containing 0.05% tween-80, at 10 mg/mL, and stored at room temperature and mixed well before use.
Adult (9- to 11-week-old) male Lewis (LEW, RE11) rats, 225-250 gram, were housed in a controlled 12-hr light-dark cycle environment and allowed free access to water and regular rat chow. All rats were anesthetized with pentobarbital 40 mg/kg i.p.
Ischemia of the left kidney was performed by transient occlusion of the left renal artery and vein, and ureter for 50 min with a vascular micro-clip. The skin was temporarily closed during the ischemia period, and the rats were put on a heating pad maintained at a temperature of 37° C. At reperfusion, the right kidney was removed before closing the abdomen with 4-0 silk suture.
Animals were randomly divided into 5 groups: • Group A. 25HC3S—i.p. dosing (as pre-treatment) N=12 • Group B. 25HC3S—i.p. dosing (as post-treatment) N=12 • Group C. 25HC3S—oral dosing (as pre-treatment) N=12 • Group D. Vehicle control, i.p. (as pre-treatment) N=6 • Group E. Vehicle control, oral (as pre-treatment) N=6
Rats in the pre-treatment groups received active or vehicle 1 day before (Day −1) the surgical intervention (I/R event) and continued for a total of 4 days. Rats in the post-treatment group received the 1st treatment at 30 min after the renal artery occlusion and continued for a total of 3 days. Blood samples were taken from all rats 2 days before the surgery (as baseline), 3 days after the surgery, and 7 days after the surgery for serum creatinine and blood urea nitrogen (BUN) analysis. All rats were sacrificed on Day 7.

[6] = test system: heart ischemia-reperfusion injury; assay: Heart ischemia-reperfusion in mice (Example 4); format: in vivo, C67B16 mice
Experimental: Wild-type C67B16 mice, both males and females, were used in the experiment. After anesthesia, the thorax of each mouse was opened and the heart was subject to a 45-minute ischemic period by ligation of the left anterior descending coronary artery, and then reperfusion was allowed by removing the coronary arterial obstruction. The thorax was closed, and mice were allowed to recover for 24 hours. All animals were sacrificed at the end of the study, 24 h after the procedure, to gain access to the heart tissue. The heart was frozen, sectioned into slices, and then stained to determine the infarct size.
Given the experience that 25-30% of the animals may die within the 24-hour period because of the procedure (occlusion of coronary artery), all groups included 12 animals. The vehicle treated group (12 mice) was compared with 25HC3S treated groups (24 mice). One group of mice received the drug (25HC3S) just before ischemia/reperfusion (FR) and another group received drug about 16-20 h before FR. Administration was via the i.p. route with either vehicle (10% propylene glycol in PBS) or 25HC3S at a dose of 25 mg/kg in the same vehicle.

[7] = test system: transient focal cerebral ischemia (tMCAO); assay: Brain stroke study, transient middle cerebral artery occlusion (tMCAO) in rats (Example 5); format: in vivo, Sprague Dawley rats; details: for tissue viability (T2 relaxation time): lower T2 in ms vs vehicle
Experimental: Transient focal cerebral ischemia was produced by right side middle cerebral artery (MCA) occlusion in male Sprague Dawley rats under anesthesia. After 120 min of ischemia, the MCA blood flow was restored. The procedure was therefore named tMCAO. All rats were given an i.p. injection of saline (4 ml per rat) after the surgery. Three groups of rats were used in the study: • Group A: 12 sham operated rats received vehicle by ip injection • Group B: 12 tMCAO rats received vehicle by ip injection • Group C: 12 tMCAO rats received 25HC3S by ip injection The parameters measured were as follows: • Mean body weight over time • Mean 7- and 20-point Neuroscore over time • Limb Placing test results over time • Mean infarct volumes (mm3), edema volumes (mm3) and T2-relaxation times (ms) Behavioral testing was conducted at 24 hours, 3 days, and 7 days post transient middle cerebral artery occlusion (tMCAO). Both 20-point Neuroscore and 7-point Neuroscore tests were conducted to assess post-ischemic motor and behavioral deficits. The Limb Placing test was conducted to assess the sensory motor integration of fore- and hind-limbs responses to tactile and proprioceptive stimulation. MRI acquisitions in vivo for all rats were performed at 24 h and 7 days after tMCAO.Lesion size, tissue viability (T2 in milliseconds), and brain edema were determined using absolute T2-MRI. Eighteen (18) coronal slices of thickness 1 mm were acquired using field-of-view imaging matrix. Absolute T2-values from contra-lateral cortex were used as a reference for tissue viability. All MRI data were analyzed using Matlab software. The infarct volume/oedema analysis was done by an observer blinded to the treatment groups. Results

[8] = test system: sepsis induced by the endotoxin lipopolysaccaride (LPS); assay: Sepsis induced by LPS, 25HC3S given 2 hrs after LPS (Examples 6A and 6B); format: in vivo, C57BL/6J mice; details: 25HC3S 25 mg/kg 2 hrs after LPS, vs vehicle
Experimental: To examine the effect of 25HC3S on sepsis induced by the endotoxin lipopolysaccaride (LPS), 11-week-old female C57BL/6J mice were IV-injected with LPS (30 mg/kg or 40 mg/kg, in PBS) 2 hrs before being treated by administration of 25HC3S (25 mg/kg, 10% propylene glycol in PBS), and mortality was monitored (% survival).

[9] = test system: mortality induced by LPS; assay: Mortality induced by LPS, pretreatment with 25HC3S (Example 6C); format: in vivo, C57BL/6J mice; details: LPS 4 mg/kg IV; 25HC3S 50 mg/kg 2 hrs before LPS; as of day 3; control 40%
Experimental: A further experiment to examine the effects of pretreatment of 25HC3S on mortality induced by LPS was conducted. In this experiment, 11-week-old female C57BL/6J mice were IV-injected with LPS (4 mg/kg in PBS). The mice were treated by administration of 25HC3S (50 mg/kg, 10% propylene glycol in PBS) 2 hrs before LPS administration, and mortality (% survival) was monitored. The results are presented below and in FIG. 9C.

[10] = Human Phase I single dose ascending study (Example 7); format: in vivo
Experimental: A randomized, double blind, and placebo controlled single dose ascending First-in-human Phase 1 study was conducted. The active agent, 25HC3S, was suspended at 30, 100, 300, and 600 mg in 60 mL of ORA-Blend® SF sugar-free flavored oral suspending vehicle. As Placebo dosage form, calcium carbonate, USP, was suspended at 30, 100, 300, and 600 mg in 60 mL of ORA-Blend® SF sugar-free flavored oral suspending vehicle. The suspension, either active or Placebo, was orally administered to each subject. Each dose group had 4 subjects receiving a single dose of active and 2 subjects receiving a single dose of Placebo. All subjects were monitored by health professionals for any potential adverse events for 7 days following administration.

[11] = 25HC3S 20 or 25 mg/kg 2 hours after ATMP 500 mg/kg, within 24 hrs
[12] = oral gavage pretreatment, higher dose, Day 3, to a lesser extent than injection
[13] = post-treatment by injection, first dose 30 min after occlusion, 3 days
[14] = pretreatment by IP injection a day before surgery, once daily 4 days
[15] = 24 hours post tMCAO, vs vehicle, difference not statistically significant
[16] = 24 hours, 3 days, 7 days post tMCAO, vs vehicle, trend of better scores

Compound: C[C@H](CCCC(C)(C)O)[C@H]1CC[C@H]2[C@@H]3CC=C4C[C@@H](OS(=O)(=O)O)CC[C@]4(C)[C@H]3CC[C@]12C [25HC3S, 5-cholesten-3, 25-diol, 3-sulfate]
- decrease of serum ALT [1, 11]: 58%
- decrease of serum AST [1, 11]: 45%
- decrease of serum LDH [1, 11]: 60%
- markers of liver and kidney function (ALT, AST, ALK, LDH, BUN, glucose) ([1]; 25HC3S 0.5 hours after ATMP, in 48 hrs): returned most markers of liver and kidney function to normal levels
- half-life ([2]; female, mouse, blood, FIG. 3A, read-out: half life in circulation (converted)): ~30 h
- tissue distribution ([2]; indicated tissues, FIG. 3B): widely distributed in different tissues
- survival rate ([3]; 25HC3S 25 mg/kg ip 2 and 24 hrs after ATMP 600 mg/kg, monitored 10 days, vs control): much higher than that of control animals
- liver function (damage) markers ALT, AST, AKP and ADH ([3]; surviving mice, sera at 48 hours, vs control (ATMP and vehicle)): lower values of each enzyme
- attenuation of body weight loss [4]: no statistically significant attenuation
- attenuation of elevated clinical chemistry parameters (LDH, AST and ALT) [4]: no statistically significant attenuation
- serum BUN level [5, 12]: reduced
- serum creatinine level [5, 12]: reduced
- serum BUN level [5, 13]: reduced
- serum creatinine level [5, 13]: reduced
- serum BUN level [5, 14]: significantly improved
- serum creatinine level [5, 14]: significantly improved
- size of infarction ([6]; 25HC3S 25 mg/kg i.p. just before or 16-20 h before ischemia/reperfusion, vs vehicle): no statistically significant difference
- 24-hour survival rate ([6]; 25HC3S 25 mg/kg i.p., vehicle group 64%): 86%
- brain lesion volume ([7]; 24 hours after tMCAO, vs vehicle, difference not statistically significant): smaller
- tissue viability (T2 relaxation time) ([7]; 24 hours post tMCAO): statistically higher tissue viability
- % edema [7, 15]: smaller
- edema volume [7, 15]: smaller
- 7-point Neuroscore [7, 16]: no statistically significant differences
- 20-point Neuroscore [7, 16]: no statistically significant differences
- Limb Placing test [7, 16]: no statistically significant differences
- brain lesion volume ([7]; 7 days after tMCAO, vs vehicle, difference not statistically significant): smaller
- % edema ([7]; 7 days post tMCAO): nearly recovered; also recorded: some higher levels of edema
- edema volume ([7]; 7 days post tMCAO): nearly recovered; also recorded: some higher levels of edema
- tissue viability (T2 relaxation time) ([7]; 7 days post tMCAO): statistically higher tissue viability
- irritation, discomfort or adverse side effects ([7]; ip injection in tMCAO rats): did not cause irritation, discomfort, or any adverse side effects
- body weight recovery ([7]; starting from Day 4 after tMCAO, vs vehicle): faster recovery in body weights
- survival (mortality monitored) ([8]; LPS 30 mg/kg IV): lived significantly longer
- survival (mortality monitored) ([8]; LPS 40 mg/kg IV): lived significantly longer
- survival rate [9]: 100%
- adverse effects ([10]; single oral dose 30, 100, 300, 600 mg suspension, monitored 7 days): No adverse effects were observed
- tolerability ([10]; single oral dose 30-600 mg): well tolerated
- bioavailability ([10]; single oral dose, plasma samples (FIG. 10)): high bioavailability
